Measured values taken from US4946841A, “Pyridazine 3,5-dihydroxy carboxylic acids and derivatives thereof, the use thereof for hypercholesterolemia” (Hoechst Aktiengesellachaft, priority 1988, dated 1990).
Where two headings read alike, the source gives them in different places.

Key:
[1] = rat; cited from earlier work
[2] = tests on humans; cited from earlier work
HMG-CoA reductase = target: T1, HMG-CoA reductase (Rattus norvegicus, UniProt P51639); experiment: HMG-CoA reductase activity in enzyme preparations; type: biochemical, rats; conditions: solubilized enzyme from rat liver microsomes, 14C-HMG-CoA substrate; read-out: IC50, molar concentration of the compound required for 50% inhibition of HMG-CoA reductase
T1 construct: solubilized enzyme preparations from liver microsomes of rats; from tissue; host or cells: rat liver microsomes, solubilized; rats induced with cholestyramine (Cuemid)
T1 sequence (P51639 1-887): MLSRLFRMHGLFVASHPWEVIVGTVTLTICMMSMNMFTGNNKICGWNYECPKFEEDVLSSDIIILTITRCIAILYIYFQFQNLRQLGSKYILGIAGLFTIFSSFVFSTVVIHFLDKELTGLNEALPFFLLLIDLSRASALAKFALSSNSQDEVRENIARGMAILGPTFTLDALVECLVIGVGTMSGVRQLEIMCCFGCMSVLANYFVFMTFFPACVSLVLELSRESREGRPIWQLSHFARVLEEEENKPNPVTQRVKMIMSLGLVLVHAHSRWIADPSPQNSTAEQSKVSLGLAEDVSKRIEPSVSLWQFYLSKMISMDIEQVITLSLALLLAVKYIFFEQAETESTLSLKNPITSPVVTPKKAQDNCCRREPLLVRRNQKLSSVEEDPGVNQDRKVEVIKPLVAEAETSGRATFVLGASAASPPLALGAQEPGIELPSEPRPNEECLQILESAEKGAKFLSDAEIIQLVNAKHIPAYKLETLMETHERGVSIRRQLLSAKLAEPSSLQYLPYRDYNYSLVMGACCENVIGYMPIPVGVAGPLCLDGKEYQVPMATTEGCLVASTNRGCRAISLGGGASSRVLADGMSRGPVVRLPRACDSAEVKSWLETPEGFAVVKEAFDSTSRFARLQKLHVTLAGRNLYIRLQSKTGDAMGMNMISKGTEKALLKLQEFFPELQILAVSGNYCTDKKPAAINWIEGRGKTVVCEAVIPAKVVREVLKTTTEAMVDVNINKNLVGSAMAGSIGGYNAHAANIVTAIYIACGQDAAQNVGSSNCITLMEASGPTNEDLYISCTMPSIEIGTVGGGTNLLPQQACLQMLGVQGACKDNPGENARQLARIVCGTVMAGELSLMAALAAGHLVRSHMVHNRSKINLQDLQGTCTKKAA
Procedure: The HMG-CoA reductase activity was measured on solubilized enzyme preparations from liver microsomes of rats which, after changing over the day/night rhythm, were induced with cholestyramine (®Cuemid).
The substrate used was (S,R)^14 C-HMG-CoA, and the concentration of NADPH was maintained during the incubation by a regenerating system. ^14 C-mevalonate was removed from the substrate and other products (for example ^14 C-HMG) by column elution, with the elution profile of each individual sample being determined. ^3 H-mevalonate was not included in every test because the determination was of the relative inhibitory effect. In each series of tests, the enzyme-free control, the enzyme-containing normal mixture (=100%) and one with added product, final concentration 10^-5 to 10^-9 M, were treated together. Each individual value was formed as the mean of 3 parallel samples. The significance of the differences between the means for product-free and product-containing samples was assessed by the t test.
The method described above was used to determine the figures for the inhibition of HMG-CoA reductase by the compounds according to the invention (IC50 /mol/liter signifies the molar concentration of the compound required for 50% inhibition): […]

[3] = tested on: cholesterol biosynthesis in HEP-G2 cells; experiment: Inhibition of cholesterol biosynthesis in cell cultures of HEP-G2 cells; type: cell-based; conditions: Homo sapiens, HepG2, 14C-acetate precursor, read-out: IC50, concentration which brings about 50% inhibition of cholesterol biosynthesis
Procedure: Monolayers of HEP-G2 cells in lipoprotein-free nutrient medium were pre-incubated with appropriate concentrations of the test substances for a defined time (for example 1 hour) and, after addition of the labeled precursor, for example sodium ^14 C-acetate, incubation was continued (for example for 3 hours). After addition of an internal standard (^3 H-cholesterol) a portion of the cells was hydrolyzed with alkali. The lipids from the hydrolyzed cells were extracted with chloroform/methanol.
This Lipid mixture was, after addition of carrier cholesterol, subjected to preparative thin-layer chromatography, the cholesterol band was visualized with iodine vapor and then isolated, and the amount of ^14 C-cholesterol formed from the ^14 C-precursor was determined by scintigraphy. Cellular protein was determined in an aliquot of the cells, so that it is possible to calculate the amount of ^14 C-cholesterol formed per unit time per mg of cellular protein. Comparison of this figure with the amount of ^14 C-cholesterol formed per mg of cellular protein and unit time in a culture treated in the same way but free of test substance yielded the inhibitory effect of the particular test product on cholesterol biosynthesis of HEP-G2 cell cultures. […]

Compound	cholesterol-lowering action [1]	cholesterol-lowering action [2]	IC50 (HMG-CoA reductase)	IC50 [3]
CC(O)(CC(=O)O)CC(=O)O [3-Hydroxy-3-methylglutaric acid]	significant cholesterol-lowering action	significant cholesterol-lowering action		
CC(C)c1nnc(-c2ccc(F)cc2)c(-c2ccc(F)cc2)c1/C=C/[C@@H](O)C[C@@H](O)CC(=O)O (relative stereo) [Example 13a, Sodium 7-[3,4-di(4-fluorophenyl)-6-isopropylpyridazin-5-yl]-3,5-dihydroxy-6-heptenoate]			1.7 nM	50 nM
CC(C)c1nnc(-c2ccc(F)cc2)c(-c2ccc(F)cc2)c1/C=C/[C@@H](O)C[C@@H](O)CC(=O)O [Example 19a, Sodium 7-[3,4-di(4-fluorophenyl)-6-isopropylpyridazin-5-yl]-3(R),5(S)-dihydroxy-6(E)-heptenoate]			1.3 nM	25 nM
